{"source": "patent US20140242093A1", "about": "“METHODS AND COMPOSITIONS FOR MODULATING THE INNATE IMMUNE RESPONSE AND/OR MYOGENESIS IN A MAMMALIAN SUBJECT” (FRED HUTCHINSON CANCER RESEARCH CENTER, priority 2011, published 2014)", "tested_on": "Cultured control human myoblasts", "assay": "Beta-defensin 3 and innate immune response, real-time qPCR of IFIH1, ISG20, DEFB103", "format": "cell-based", "description": "Cultured control human myoblasts were grown to 80% confluence and infected with equivalent titers of lenti-GFP, lenti-DUX4-s and lenti-DUX4-fl in growth media supplemented with 8 μg/mL polybrene. Expression of innate immune responsive genes including IFIH1 (MDA5), ISG20 and DEFB103 were assessed by real-time qPCR as previously described at 24 hours (primer sequences below). For conditioned media, cells were infected with lenti-DUX4-fl for 12 hours, thoroughly washed 3 times with PBS and switched to fresh growth media to condition for 12 hours. Control conditioned media was produced from cells not infected with any lentivirus. Myoblasts were infected with lenti-GFP in either control conditioned media, lenti-DUX4-fl conditioned media or regular growth media supplemented with 1 μM human β-defensin 3 (Peptides International, Louisville, Ky.). Expression of innate immune responsive genes were examined after 24 hours.", "data": [{"substance": "DUX4-fl: full-length DUX4 protein (SEQ ID NO:110), expressed from lentiviral or pCS2 vectors or in vitro translated", "values": [{"measurement": "expression of DEFB103A/B (β-defensin 3)", "setting": "FIG. 7B", "result": "robustly induced expression of DEFB103A/B"}, {"measurement": "induction of the innate immune response in myoblasts", "setting": "RT-qPCR, similar titers, FIG. 7A", "result": "did not"}]}]}
